US20110105514A1, “5,6,7,8-TETRAHYDRO-IMIDAZO[1,5-A]PYRAZINE COMPOUNDS” (priority 2008, published 2011)
Where two headings read alike, the source gives them in different places.

Key:
[1] = test system: rat; settings: cited from earlier work
[2] = test system: rat; settings: cited from earlier work; remark: listed apart in the source
[3] = test system: rat; settings: rat model; cited from earlier work
[4] = biological target: T1, human orexin-2 receptor (Homo sapiens, UniProt O43614); assay: FLIPR calcium assay of orexin receptor antagonistic activity, CHO cells expressing the human orexin-2 receptor; assay type: cell-based; settings: 3 nM orexin-A as agonist
T1 construct: expressed in transfected cells; host or cells: Chinese hamster ovary (CHO) cells
T1 sequence (O43614 1-444): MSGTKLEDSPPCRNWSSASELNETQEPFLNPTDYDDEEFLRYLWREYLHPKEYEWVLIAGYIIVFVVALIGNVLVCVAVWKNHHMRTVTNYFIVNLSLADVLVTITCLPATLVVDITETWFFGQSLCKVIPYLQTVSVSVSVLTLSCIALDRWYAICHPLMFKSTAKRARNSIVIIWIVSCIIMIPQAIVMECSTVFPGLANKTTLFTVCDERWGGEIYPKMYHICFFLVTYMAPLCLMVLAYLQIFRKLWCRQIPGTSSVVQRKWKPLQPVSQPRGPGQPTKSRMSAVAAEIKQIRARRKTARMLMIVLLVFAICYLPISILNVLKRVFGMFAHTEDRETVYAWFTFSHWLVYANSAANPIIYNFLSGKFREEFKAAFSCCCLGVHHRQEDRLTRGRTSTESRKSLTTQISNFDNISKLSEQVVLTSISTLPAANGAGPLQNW
Experimental: (§1) The orexin receptor antagonistic activity of the compounds of formula (I) is determined in accordance with the following experimental method.
(§2) Chinese hamster ovary (CHO) cells expressing the human orexin-1 receptor and the human orexin-2 receptor, respectively, are grown in culture medium (Ham F-12 with L-Glutamine) containing 300 μg/ml G418, 100 U/ml penicillin, 100 μg/ml streptomycin and 10% heat inactivated fetal calf serum (FCS). The cells are seeded at 20′000 cells/well into 384-well black clear bottom sterile plates (Greiner). The seeded plates are incubated overnight at 37° C. in 5% CO2.
(§3) Human orexin-A as an agonist is prepared as 1 mM stock solution in MeOH:water (1:1), diluted in HBSS containing 0.1% bovine serum albumin (BSA), NaHCO3: 0.375 g/l and 20 mM HEPES for use in the assay at a final concentration of 3 nM.
(§4) Antagonists are prepared as 10 mM stock solution in DMSO, then diluted in 384-well plates using DMSO followed by a transfer of the dilutions into in HBSS containing 0.1% bovine serum albumin (BSA), NaHCO3: 0.375 g/l and 20 mM HEPES. On the day of the assay, 50 μl of staining buffer (HBSS containing 1% FCS, 20 mM HEPES, NaHCO3: 0.375 g/l, 5 mM probenecid (Sigma) and 3 μM of the fluorescent calcium indicator fluo-4 AM (1 mM stock solution in DMSO, containing 10% pluronic) is added to each well. The 384-well cell-plates are incubated for 50 min at 37° C. in 5% CO2 followed by equilibration at RT for 30-120 min before measurement.
(§5) Within the Fluorescent Imaging Plate Reader (FLIPR Tetra, Molecular Devices), antagonists are added to the plate in a volume of […], incubated for 10 min and finally […] of agonist is added. Fluorescence is measured for each well at 1 second intervals, and the height of each fluorescence peak is compared to the height of the fluorescence peak induced by 3 nM orexin-A with vehicle in place of antagonist. For each antagonist, the IC50 value (the concentration of compound needed to inhibit 50% of the agonistic response) is determined and may be normalized using the obtained IC50 value of a on-plate reference compound (normalized values in Table 1 indicated by an asterisk*).
(§6) The calculated IC50 values of the compounds may fluctuate depending on the daily cellular assay performance. Fluctuations of this kind are known to those skilled in the art.

[5] = biological target: T2, human orexin-1 receptor (Homo sapiens, UniProt O43613); assay: FLIPR calcium assay of orexin receptor antagonistic activity, CHO cells expressing the human orexin-1 receptor; assay type: cell-based; settings: 3 nM orexin-A as agonist
T2 construct: expressed in transfected cells; host or cells: Chinese hamster ovary (CHO) cells
T2 sequence (O43613 1-425): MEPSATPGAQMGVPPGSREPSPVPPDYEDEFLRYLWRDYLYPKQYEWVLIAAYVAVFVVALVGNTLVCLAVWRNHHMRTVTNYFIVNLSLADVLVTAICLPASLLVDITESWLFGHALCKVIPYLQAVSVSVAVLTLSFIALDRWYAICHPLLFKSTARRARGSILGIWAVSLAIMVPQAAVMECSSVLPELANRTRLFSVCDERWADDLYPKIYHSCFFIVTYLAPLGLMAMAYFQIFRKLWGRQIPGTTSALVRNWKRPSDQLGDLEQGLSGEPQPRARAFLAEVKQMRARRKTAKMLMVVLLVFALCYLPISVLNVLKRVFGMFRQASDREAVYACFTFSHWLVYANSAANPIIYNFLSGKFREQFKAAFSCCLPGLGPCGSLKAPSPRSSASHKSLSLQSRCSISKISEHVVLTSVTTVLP
Experimental: as §1, §2, §3, §4, §5, §6

[6] = value not normalized, read-out: OX2 IC50
[7] = value not normalized, read-out: OX1 IC50
[8] = normalized using IC50 of on-plate reference compound (asterisk), read-out: OX2 IC50 (in nM), normalized value
[9] = normalized using IC50 of on-plate reference compound (asterisk), read-out: OX1 IC50 (in nM), normalized value

Row | IC50 [4, 6] [nM] | IC50 [5, 7] [nM] | IC50 [4, 8] [nM] | IC50 [5, 9] [nM] | SMILES | further results
1 | – | – | – | – | CNC(=O)[C@@H](c1ccccc1)N1CCc2cc(OC)c(OC)cc2[C@@H]1CCc1ccc(C(F)(F)F)cc1 [(2R)-2-{(1S)-6,7-dimethoxy-1-[2-(4-trifluoromethyl-phenyl)-ethyl]-3,4-dihydro-1H-isoquinolin-2-yl}-N-methyl-2-phenyl-acetamide] | alertness (active wake and locomotion) [1]: decrease alertness; time spent in both REM and NREM sleep [1]: dose-dependently increase the time spent in both REM and NREM sleep; activity in post-traumatic stress disorder model [2]: active; memory function [3]: enhance memory function
2 | 11 | 43 | – | – | CNC(=O)[C@@H](c1ccccc1)N1CCn2c(C3CC3)nc(Cl)c2[C@@H]1CCc1ccc(Cl)c(F)c1 [Example 3, (R)-2′-{1-chloro-(S)-8-[2-(4-chloro-3-fluoro-phenyl)-ethyl]-3-cyclopropyl-5,6-dihydro-8H-imidazo[1,5-a]pyrazin-7-yl}-N-methyl-2′-phenyl-acetamide] | –
3 | 21 | 56 | – | – | CNC(=O)[C@@H](c1ccccc1)N1CCn2c(SC)nc(Cl)c2[C@@H]1CCc1ccc(C(F)(F)F)c(F)c1F [Example 8, (R)-2′-{1-chloro-(8)-8-[2-(2,3-difluoro-4-trifluoromethyl-phenyl)-ethyl]-3-methylsulfanyl-5,6-dihydro-8H-imidazo[1,5-a]pyrazin-7-yl}-N-methyl-2′-phenyl-acetamide] | –
4 | 2 | 45 | – | – | CCc1nc(Cl)c2n1CCN([C@@H](C(=O)NC)c1ccccc1)[C@H]2CCc1cccc(OC(F)F)c1 [Example 11, (R)-2′-{1-chloro-(S)-8-[2-(3-difluoromethoxy-phenyl)-ethyl]-3-ethyl-5,6-dihydro-8H-imidazo[1,5-a]pyrazin-7-yl}-N-methyl-2′-phenyl-acetamide] | –
5 | 8 | 259 | – | – | CNC(=O)[C@@H](c1ccccc1)N1CCn2c(C(F)(F)F)nc(C)c2[C@@H]1CCc1ccc(C(F)(F)F)cc1 [Example 13a, N-methyl-(R)-2′-{1-methyl-3-trifluoromethyl-(S)-8-[2-(4-trifluoromethyl-phenyl)-ethyl]-5,6-dihydro-8H-imidazo[1,5-a]pyrazin-7-yl}-2′-phenyl-acetamide] | –
6 | – | – | 8 | 384 | CCc1nc(C2CC2)n2c1C(CCc1ccc(C(F)(F)F)c(F)c1)N(C(C(=O)NC)c1ccccc1)CC2 [Example 17, (R)-2′-{3-cyclopropyl-1-ethyl-(8)-8-[2-(3-fluoro-4-trifluoromethyl-phenyl)-ethyl]-5,6-dihydro-8H-imidazo[1,5-a]pyrazin-7-yl}-N-methyl-2′-phenyl-acetamide] | –
7 | – | – | 63 | 3540 | CCOc1nc(C(F)(F)F)c2n1CCN([C@@H](C(=O)NC)c1ccccc1)[C@H]2CCc1ccc(C(F)(F)F)cc1 [Example 21, (R)-2′-{3-ethoxy-1-trifluoromethyl-(S)-8-[2-(4-trifluoromethyl-phenyl)-ethyl]-5,6-dihydro-8H-imidazo[1,5-a]pyrazin-7-yl}-N-methyl-2′-phenyl-acetamide] | –
8 | – | – | 25 | 1680 | CCc1nc(S(C)(=O)=O)c2n1CCN([C@@H](C(=O)NC)c1ccccc1)[C@H]2CCc1ccc(C(F)(F)F)cc1 [Example 23, (R)-2′-{3-ethyl-1-methanesulfonyl-(S)-8-[2-(4-trifluoromethyl-phenyl)-ethyl]-5,6-dihydro-8H-imidazo[1,5-a]pyrazin-7-yl}-N-methyl-2′-phenyl-acetamide] | –
9 | – | – | 7 | 91 | CNC(=O)[C@@H](c1ccccc1)N1CCn2c(C3CC3)nc(Cl)c2[C@@H]1CCc1cccc(C(F)(F)F)c1 [Example 26, (R)-2′-{1-chloro-3-cyclopropyl-(S)-8-[2-(3-trifluoromethyl-phenyl)-ethyl]-5,6-dihydro-8H-imidazo[1,5-a]pyrazin-7-yl}-N-methyl-2′-phenyl-acetamide] | –
10 | – | – | 13 | 505 | CCc1nc(C(F)(F)F)n2c1[C@H](CCc1ccc(C(F)(F)F)cc1)N([C@@H](C(=O)NC)c1ccccc1)CC2 [Example 28, (R)-2′-{1-ethyl-3-trifluoromethyl-(8)-8-[2-(4-trifluoromethyl-phenyl)-ethyl]-5,6-dihydro-8H-imidazo[1,5-a]pyrazin-7-yl}-N-methyl-2′-phenyl-acetamide] | –
